In the test the test system is Zea mays Dekalb Hybrid DKC68-26RIB. Kind of test: Stomatal conductance (LI-6400XT) of sprayed maize plants. The class given is in vivo. Particulars: EC formulation plus 1% Crop Oil Concentrate, foliar spray 2 grams/acre, measured next morning (FIG. 7). An excerpt:
FIG. 7 is a boxplot representing the distribution of stomatal conductance (mmol/m^2/s) measurements taken via LI-6400XT on Zea mays plants treated with EC formulation blank and Crop Oil Concentrate (control; EC) or strigolactone molecule MBS-127, EC formulation blank and Crop Oil Concentrate (MBS-127+EC). […] Letters define significant classes with P<0.05. Points show observations falling outside of the whiskers and have been jittered along the x-axis to avoid overlap.
Water transport is closely intertwined with many vital plant processes, including photosynthesis, translocation, mineral nutrition, growth, and plays a critical role in defining the yield potential of a crop field (Azizian, A., & Sepaskhah, A. R. “Maize response to water, salinity and nitrogen levels: yield-water relation, water-use efficiency and water uptake reduction function,” International Journal of Plant Production (2014) Vol. 8(2), pp. 183-214). The compounds of formulas described herein induce increased leaf conductance in the leaves of intact Z. mays plants (FIG. 7).
In this experiment maize (Zea mays Dekalb Hybrid DKC68-26RIB) plants were grown in a greenhouse in one-gallon pots filled with Sunshine #2 soil-less growing mix. […] Leaves were acclimated within the LI6400XTR sensor head until gas exchange measurements had stabilized for conductance and then the conductance for that leaf determined.

Take `COC(=O)/C=C/OC1C=C(C)C(=O)O1` (stereo not shown) [MBS-127, 3-(4-Methyl-5-oxo-2,5-dihydro-furan-2-yloxy)-acrylic acid methyl ester]: the “increase in stomatal conductance compared to the control group” value is reported as 60%.

(Values after patent publication US20230406821A1, “STRIGOLACTONE DERIVATIVES” (Plant Response, Inc., priority 2017, published 2023).)
